Article PMC3914206

Columns and labels:
Type in all cases: binding
Set-up in all cases: KINOMEscan: ABL1(F317L)-phosphorylated / KINOMEscan: ABL1(H396P)-nonphosphorylated / KINOMEscan: ABL1(H396P)-phosphorylated / KINOMEscan: ABL1(M351T)-phosphorylated / KINOMEscan: ABL1(T315I)-phosphorylated / KINOMEscan: ABL1-nonphosphorylated / KINOMEscan: ABL1-phosphorylated / KINOMEscan: ACVR2A / KINOMEscan: ACVR2B / KINOMEscan: ADCK3 / KINOMEscan: ADCK4 / KINOMEscan: AKT1 / KINOMEscan: AKT3 / KINOMEscan: ALK / KINOMEscan: ARK5 / KINOMEscan: AURKA / KINOMEscan: AURKC / KINOMEscan: BIKE / KINOMEscan: BMPR1A / KINOMEscan: BMPR1B / KINOMEscan: BMX / KINOMEscan: BRK / KINOMEscan: BRSK1 / KINOMEscan: BRSK2 / KINOMEscan: CAMK1 / KINOMEscan: CAMK1D / KINOMEscan: CAMK1G / KINOMEscan: CAMK2A / KINOMEscan: CAMK2B / KINOMEscan: AAK1 / KINOMEscan: CAMK2D / KINOMEscan: CAMK2G / KINOMEscan: ABL1(F317I)-nonphosphorylated / KINOMEscan: ABL1(F317I)-phosphorylated / KINOMEscan: ABL1(F317L)-nonphosphorylated: unit: % Ctrl
panel of 442 kinases [1] = biological target: T1, panel of 442 kinases (Homo sapiens, UniProt O00238); conditions: Compound Concentration 10 µM
T1 construct: purchased KINOMEscan
Description: (§1) We assessed the selectivity of members of this scaffold using the KINOMEscan methodology across a near comprehensive panel of 442 kinases [[18,27]].

panel of 442 kinases [2] = biological target: T2, panel of 442 kinases (Homo sapiens, UniProt P04629); conditions: kinase TRKA; compound concentration 10 µM
T2 construct: purchased KINOMEscan
Description: as §1

panel of 442 kinases [3] = biological target: T3, panel of 442 kinases (Homo sapiens, UniProt P54756); conditions: Compound Concentration 10 µM
T3 construct: purchased KINOMEscan
Description: as §1

panel of 442 kinases [4] = biological target: T4, panel of 442 kinases (Homo sapiens, UniProt Q8IU85); conditions: Compound Concentration 10 µM
T4 construct: purchased KINOMEscan
Description: as §1

T2 sequence (P04629 33-796): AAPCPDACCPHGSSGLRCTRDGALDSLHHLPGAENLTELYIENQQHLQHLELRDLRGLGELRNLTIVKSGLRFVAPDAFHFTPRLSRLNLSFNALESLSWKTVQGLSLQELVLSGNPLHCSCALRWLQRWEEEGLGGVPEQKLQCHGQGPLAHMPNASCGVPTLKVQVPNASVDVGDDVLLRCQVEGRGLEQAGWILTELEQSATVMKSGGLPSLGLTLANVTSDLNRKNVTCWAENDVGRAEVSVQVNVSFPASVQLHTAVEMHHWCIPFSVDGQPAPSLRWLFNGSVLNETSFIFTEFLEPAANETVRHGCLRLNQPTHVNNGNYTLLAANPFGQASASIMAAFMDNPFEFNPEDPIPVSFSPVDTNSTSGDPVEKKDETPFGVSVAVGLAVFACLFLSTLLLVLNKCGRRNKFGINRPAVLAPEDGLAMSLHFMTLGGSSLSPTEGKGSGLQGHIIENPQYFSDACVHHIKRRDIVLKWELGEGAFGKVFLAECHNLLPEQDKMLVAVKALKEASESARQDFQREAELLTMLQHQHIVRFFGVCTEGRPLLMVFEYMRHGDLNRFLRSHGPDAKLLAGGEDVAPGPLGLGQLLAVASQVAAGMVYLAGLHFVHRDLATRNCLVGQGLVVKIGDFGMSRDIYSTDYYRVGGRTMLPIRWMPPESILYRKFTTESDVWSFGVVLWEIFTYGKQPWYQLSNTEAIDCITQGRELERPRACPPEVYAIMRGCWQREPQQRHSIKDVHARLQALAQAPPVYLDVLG
T4 sequence (Q8IU85 whole entry): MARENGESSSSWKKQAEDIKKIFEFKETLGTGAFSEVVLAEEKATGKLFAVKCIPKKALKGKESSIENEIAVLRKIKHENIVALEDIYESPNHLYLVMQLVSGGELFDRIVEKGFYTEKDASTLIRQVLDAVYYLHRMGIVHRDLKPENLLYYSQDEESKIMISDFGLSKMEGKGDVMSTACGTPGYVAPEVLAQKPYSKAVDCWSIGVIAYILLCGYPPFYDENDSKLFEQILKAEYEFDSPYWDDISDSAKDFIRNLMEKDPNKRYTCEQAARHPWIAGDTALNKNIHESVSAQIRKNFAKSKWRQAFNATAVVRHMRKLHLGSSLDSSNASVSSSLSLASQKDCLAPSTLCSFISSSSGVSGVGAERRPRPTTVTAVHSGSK
T3 sequence (P54756 25-1037): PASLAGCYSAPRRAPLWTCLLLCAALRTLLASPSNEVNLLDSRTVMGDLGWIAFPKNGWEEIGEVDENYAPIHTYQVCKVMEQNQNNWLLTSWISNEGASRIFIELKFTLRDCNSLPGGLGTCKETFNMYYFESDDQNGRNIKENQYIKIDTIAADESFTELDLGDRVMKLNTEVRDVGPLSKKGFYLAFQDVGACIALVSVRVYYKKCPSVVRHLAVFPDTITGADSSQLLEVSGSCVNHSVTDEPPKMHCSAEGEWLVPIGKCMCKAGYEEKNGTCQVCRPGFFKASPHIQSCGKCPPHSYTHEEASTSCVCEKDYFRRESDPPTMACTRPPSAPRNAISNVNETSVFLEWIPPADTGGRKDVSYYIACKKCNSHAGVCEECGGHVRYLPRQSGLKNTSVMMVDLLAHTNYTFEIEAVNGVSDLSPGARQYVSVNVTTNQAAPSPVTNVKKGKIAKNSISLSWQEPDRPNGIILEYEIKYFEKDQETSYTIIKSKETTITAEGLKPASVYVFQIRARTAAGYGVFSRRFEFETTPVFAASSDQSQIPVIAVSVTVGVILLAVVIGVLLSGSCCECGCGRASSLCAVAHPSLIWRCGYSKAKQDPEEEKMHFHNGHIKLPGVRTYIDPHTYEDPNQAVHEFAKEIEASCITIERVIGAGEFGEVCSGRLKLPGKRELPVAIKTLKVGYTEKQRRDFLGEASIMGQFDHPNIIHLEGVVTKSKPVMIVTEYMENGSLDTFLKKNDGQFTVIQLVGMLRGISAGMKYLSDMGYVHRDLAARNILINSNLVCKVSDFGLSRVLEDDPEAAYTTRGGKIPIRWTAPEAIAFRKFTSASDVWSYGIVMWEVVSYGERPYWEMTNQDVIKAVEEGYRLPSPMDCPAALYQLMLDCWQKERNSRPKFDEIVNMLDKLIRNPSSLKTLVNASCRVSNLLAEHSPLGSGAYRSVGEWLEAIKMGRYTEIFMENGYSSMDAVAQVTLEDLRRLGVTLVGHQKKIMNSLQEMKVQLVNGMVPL
T1 sequence (O00238 14-502): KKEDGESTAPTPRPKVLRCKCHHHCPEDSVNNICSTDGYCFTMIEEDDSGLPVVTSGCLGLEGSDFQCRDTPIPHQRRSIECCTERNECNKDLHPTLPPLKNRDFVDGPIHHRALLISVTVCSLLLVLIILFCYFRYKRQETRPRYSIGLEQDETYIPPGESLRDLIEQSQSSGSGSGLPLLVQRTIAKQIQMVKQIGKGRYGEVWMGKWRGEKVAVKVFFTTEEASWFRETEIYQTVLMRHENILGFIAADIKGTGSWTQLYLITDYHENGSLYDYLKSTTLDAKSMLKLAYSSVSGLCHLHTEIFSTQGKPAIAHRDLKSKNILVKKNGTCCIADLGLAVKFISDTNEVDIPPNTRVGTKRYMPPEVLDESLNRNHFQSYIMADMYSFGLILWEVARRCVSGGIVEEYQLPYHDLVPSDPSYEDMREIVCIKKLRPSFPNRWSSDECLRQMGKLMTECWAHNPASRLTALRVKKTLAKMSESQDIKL

| SMILES | KINOMEscan: BMPR1B (panel of 442 kinases [1]) | % Ctrl, TRKA (panel of 442 kinases [2]) [% Ctrl] | KINOMEscan: EPHA5 (panel of 442 kinases [3]) | KINOMEscan: CAMK1D (panel of 442 kinases [4]) |
| --- | --- | --- | --- | --- |
| CCOc1cc(C(=O)N2CCC(N3CCN(C)CC3)CC2)ccc1Nc1ncc2c(n1)N(C1CCCC1)c1ccccc1C(=O)N2C [Compound 26] | 100 | 100 | 100 | 61 |
| COc1cc(C(=O)N2CCC(N3CCN(C)CC3)CC2)ccc1Nc1ncc2c(n1)N(C1CCCC1)c1ccccc1C(=O)N2C [Compound 25, 11-cyclopentyl-2-((2-methoxy-4-(4-(4-methylpiperazin-1-yl)piperidine-1-carbonyl)phenyl)amino)-5-methyl-5H-benzo[e]pyrimido[5,4-b][1,4]diazepin-6(11H)-one] | 98 | 78 | 99 | 77 |
| COc1cc(C(=O)N2CCC(N3CCN(C)CC3)CC2)ccc1Nc1ncc2c(n1)N1CCc3cccc(c31)C(=O)N2C [Compound 24] | 97 | 93 | 94 | – |
| COc1cc(C(=O)N2CCC(N3CCN(C)CC3)CC2)ccc1Nc1ncc2c(n1)N(C)c1ccccc1C(=O)N2C [15 (LRRK2-IN-1)] | 76 | 69 | 95 | 69 |
